Measurements published in patent publication US20150057354A1, “METHOD OF MAINTAINING OR IMPROVING TACTICAL PERFORMANCE AND COGNITIVE FUNCTION THROUGH DIETARY SUPPLEMENTATION” (Natural Alternatives International, Inc., priority 2013, published 2015).
Like-named read-outs stand apart in the source and are kept apart here.

Key:
[1] = for High Running Velocity (>4.4 m · sec^−1): distance run at high velocity; for Low-Moderate Running Velocity (<4.4 m · sec^−1): distance run at low to moderate velocity
From the text: Twenty male soldiers from a special operations unit of the Israel Defense Force (IDF) volunteered to participate in this study to examine the effect of 28 days of beta-alanine ingestion on physical, tactical, psychomotor and cognitive performance in military personnel. Following an explanation of all procedures, risks and benefits, each participant provided their informed consent to participate in the study. The Helsinki committee of the IDF Medical Corps approved the research protocol. […] Screening for performance enhancing drug use and additional supplementation was accomplished via a health questionnaire completed during participant recruitment. All participants were from the same unit, but were from three different squads. Volunteers from each squad were randomly assigned to one of two groups. The first group; (BA; 20.1±0.7 years; height: 1.79±0.07 m; weight: 78.3±9.7 kg) consumed 6.0 g of β-alanine per day, while the second group (PL; 20.2±1.1 years; height: 1.80±0.05; weight: 79.6±7.8 kg) consumed 6 g of placebo (rice flour). There were an equal number of participants from each squad that were randomly assigned to either BA or PL.
(§1) Each session required all participants to perform a 4 km run dressed in shorts, T-shirt and running shoes. Immediately following the 4 km run, participants performed five countermovement jumps.
All participants were provided with an individual global positioning system (GPS) that they wore in a vest underneath their shirt. The GPS unit (MinimaxX, V4.3, Catapult Innovations, Victoria, Australia) was positioned in a posterior pocket on the vest situated between the participant's right and left scapula in the upper-thoracic spine region. Information on velocity patterns was recorded during the 4 km run. Peak velocity, mean velocity, distance covered running at slow-moderate speed (<4.44 m·sec-1), distance covered running at high speed (4.44+m·sec-1), and the percent of total distance run at slow-moderate and high speeds were downloaded from the GPS receiver/transmitters. Data was collected at 10 Hz and all analysis was performed with the system software provided by the manufacturer.
(§2) Participants in the supplement group were provided with 2 tablets of sustained-release β-alanine at a dose of 2 g per serving three times per day (total β-alanine intake was 6 g per day) and subjects in the placebo group were provided with an equivalent amount of rice powder. […] Supplementation occurred over a 28 day period.
Data were analyzed using a 2×2 [treatment (BA, PL) X time (pretest, posttest)] mixed factorial ANOVA.

[2] = From the text: as §1
Targets were set at a 40-m distance from the firing line and were all headshots. Each shot that hit the target was considered accurate. Twenty targets were set up on the range. All participants were notified prior to the start of data collection which target they were required to shoot at. Immediately following the 120-m sprint, participants continued onto the shooting range and shot 5 times while standing and 5 times from a kneeling position with their assault rifle. Participants were requested to shoot rapidly and accurately. While shooting, each participant was required to handle a misfire in their weapon. The misfire was prearranged by the investigative team, which involved placing an empty bullet into weapon's magazine (weapon's ammunition storage and feeding device). This required the participant to recognize and correct the misfire and continue to deliver fire at the designated target. The designed misfire was set to increase the stress of the shooting, with the participants already fatigued from the 4 km run, jumps and sprint with full gear. The number of accurate shots and the time required to perform these shots was recorded.
as §2

[3] = Pre to Post; p=0.844, ES=0.003
From the text: as §1, §2

[4] = 2.5 km run
From the text: (§3) Eighteen male soldiers from an elite combat unit volunteered to participate in this double-blind study. […] Screening for performance enhancing drug use and additional supplementation was accomplished via a health questionnaire completed during participant recruitment. Participants were from the same unit, but were from three different squads. Volunteers from each squad were randomly assigned to one of two groups. The randomization procedure involved that each volunteer from the same squad to be alternatively assigned to each group. […] The first group (BA; age 19.6±0.5 years; height: 1.76±0.05 m; body mass: 72.1±4.5 kg) consumed 6.0 g of β-alanine per day, while the second group (PL; age 20.2±1.0 years; height: 1.79±0.08; body mass: 76.4±6.1 kg) consumed 6 g of placebo (rice flour). During the 30-day study period all participants from all squads participated in the same advanced military training tasks that included combat skill development, physical work under pressure, navigational training, self-defense/hand-to-hand combat and conditioning.
(§4) Data collection occurred before (PRE) and following (POST) 30 days of supplementation. During each session participants performed military relevant tasks that included a 2.5 km run, a 1-min sprint, and a 50-m casualty carry. In addition, participants performed repeated 30-m sprints in combat gear (combat vest with ammunition, helmet, and assault rifle). Between each sprint soldiers were tested on marksmanship. Immediately following the final sprint and target shooting, participants performed a 2-min serial subtraction test on the firing range to assess cognitive function under stressful conditions (continuous shooting). These assessments were based upon previously published investigations examining military performance responses during stressful conditions (Nindl, Leone et al. 2002, Harman, Gutekunst et al. 2008).
(§5) These tests simulated a rapid approach to the battlefield. […] During the run and sprint all participants were dressed in shorts, T-shirt and running shoes. Both the run and sprint were performed on an asphalt road. All participants were provided with an individual global positioning system (GPS) that they wore in a vest underneath their shirt. The GPS unit (MinimaxX, V4.3, Catapult Innovations, Victoria, Australia) was positioned in a posterior pocket on the vest situated between the participant's right and left scapula in the upper-thoracic spine region. Information on velocity patterns was recorded during the 2.5 run, as well as total distance run during the 1-min sprint. During the 2.5 km run the velocity of the run was divided into three operationally distinct thresholds and defined as low speed (2.50 m˜s^−1-3.60 m˜s^−1), moderate speed (3.61 m·s^−1-4.43 m·s^−1) or high speed (>4.44 m·sec^−1). In addition, the average velocity and average heart rate during the 2.5 km run were also downloaded from the GPS receiver/transmitters.
as §2, with “of (2” for “of 2”, “per serving)” for “per serving”, “powder. Participants were instructed to consume the supplement following their meals with water.” for “powder.”, “occurred every day” for “occurred”, “a 30-day” for “a 28 day”

[5] = 1-min Sprint
Protocol: as §4, §5
During the 1-min sprint peak velocity, average velocity, total distance, total distance within 90% of peak velocity, and percent decline was downloaded from the GPS receiver/transmitters. All data were collected at 10 Hz and all analyses were performed with the system software provided by the manufacturer.
as §2, with “of (2” for “of 2”, “per serving)” for “per serving”, “powder. Participants were instructed to consume the supplement following their meals with water.” for “powder.”, “occurred every day” for “occurred”, “a 30-day” for “a 28 day”

[6] = for Average Sprint Time / Fatigue rate: Repeat 30-m Sprints
Protocol: as §4
as §2, with “of (2” for “of 2”, “per serving)” for “per serving”, “powder. Participants were instructed to consume the supplement following their meals with water.” for “powder.”, “occurred every day” for “occurred”, “a 30-day” for “a 28 day”

[7] = 30 days, 6 g per day, sustained-release tablets
From the text: as §3
Participants in the supplement group were provided with 2 tablets of sustained-release β-alanine at a dose of (2 g per serving) three times per day (total β-alanine intake was 6 g per day) and subjects in the placebo group were provided with an equivalent amount of rice powder. […]

[8] = 30 days, 6 g per day; p=0.048
Protocol: Carnosine content of all participants was assessed by proton magnetic resonance spectroscopy (MRS) in the gastrocnemius muscle. All studies were performed on a 3-T system (Ingenia, Philips Medical Systems, Best, The Netherlands). Single-voxel, STEAM acquisitions of the gastrocnemius medialis muscle of the lower leg were carried out using a transmit-receive (16-channel) coil. In the leg the scan parameters were TR/TM/TE=2000/12/13 ms. Second-order shimming was used giving a full-width-half-maximum line width of approximately 25 Hz in the calf muscle. Water suppression was achieved by applying two bandwidth selective rf pulses. […] The spectra were analyzed using the Philips SpectroView software.
A 1-litre solution of 20 mM L-carnosine (Sigma-Aldrich) in 0.1M potassium phosphate buffer (pH=7.2) was used as an external reference phantom for absolute quantification. […]
The T1, T2 values for the phantom and muscle were taken from Baguet and colleagues (2010). The correction for the coil loading was calculated according to the method previously described (Soher, van Zijl et al. 1996).
Data was analyzed using a 2×2 [treatment (BA, PL) X time (PRE, POST)] repeated measures analysis of variance. […] POST-PRE (A) performance changes were analyzed using an unpaired t test. […] As such, comparisons A carnosine content was analyzed using the non-parametric independent samples median test. […]

[9] = four weeks of ingestion, dosages similar to the present one (Hill et al., 2007); cited from earlier work
[10] = β-alanine taken as a free amino acid; some individuals; cited from earlier work
[11] = Study 1: vertical jump power (five countermovement jumps) after 4-km run; conditions: at Post
[12] = 4-km run, POST (28 days, 6 g per day)

Structure (SMILES): NCCC(=O)O [BA, β-alanine]
- % Distance run at High Running Velocity ([1]; 4-km run, POST): 25.4 ± 18.0%
- % Distance run at Low to Moderate Running Velocity ([1]; 4-km run, POST): 74.3 ± 18.3%
- Average Velocity [1, 12]: 4.13 ± 0.27 m · sec^−1
- Peak Velocity [1, 12]: 5.46 ± 0.26 m · sec^−1
- % Distance run at High Running Velocity ([1]; 4-km run, PRE): 29.3 ± 16.1%
- % Distance run at Low to Moderate Running Velocity ([1]; 4-km run, PRE): 70.8 ± 16.2%
- Average Velocity ([1]; 4-km run, PRE): 4.25 ± 0.22 m · sec^−1
- Peak Velocity ([1]; 4-km run, PRE (before supplementation), mean ± SD): 5.84 ± 0.63 m · sec^−1
- difference between BA and PL in the distance run at a high velocity ([1]; 4-km run, Post, not statistically significant): 34.9%
- High Running Velocity (>4.4 m · sec^−1) ([1]; 4-km run, POST): 1009 ± 675
- High Running Velocity (>4.4 m · sec^−1) ([1]; 4-km run, PRE): 1166 ± 610
- Low-Moderate Running Velocity (<4.4 m · sec^−1) ([1]; 4-km run, POST): 2957 ± 672
- Low-Moderate Running Velocity (<4.4 m · sec^−1) ([1]; 4-km run, PRE): 2811 ± 605
- 4K Run Time ([1]; POST): 962.6 ± 65.0 s
- 4K Run Time ([1]; PRE): 942.4 ± 39.3 s
- difference between the groups in time to perform 10 shots ([2]; BA faster than PL, not statistically different): 24.8%
- time to perform 10 shots ([2]; Post, PL 37.7±13.9 sec, p=0.161): 30.2 ± 5.8 s
- number of shots on target ([2]; at Post, of 10 shots, 40-m targets, p=0.012 vs PL): 8.2±1.0
- serial subtraction test, BA vs PL [3]: no significant interactions
- Average Heart Rate ([4]; POST): 165.7 ± 6.1 beats · min^−1
- Average Velocity ([4]; POST): 4.09 ± 0.25 m · s^−1
- Distance Run at High Intensity ([4]; POST): 23.9 ± 20.1%
- Distance Run at Low Intensity ([4]; POST): 10.7 ± 14.0%
- Distance Run at Moderate Intensity ([4]; POST): 65.1 ± 14.8%
- Time ([4]; POST (30 days, 6 g per day)): 629 ± 23.8 s
- Average Heart Rate ([4]; PRE): 156.8 ± 15.5 beats · min^−1
- Average Velocity ([4]; PRE): 3.97 ± 0.17 m · s^−1
- Distance Run at High Intensity ([4]; PRE): 18.4 ± 12.4%
- Distance Run at Low Intensity ([4]; PRE): 12.3 ± 12.0%
- Distance Run at Moderate Intensity ([4]; PRE): 69.8 ± 12.1%
- Time ([4]; PRE): 624 ± 22.6 s
- Average Velocity ([5]; POST): 5.09 ± 0.36 m · s^−1
- Distance Run at 90% Peak Velocity ([5]; POST): 58.5 ± 7.7
- Fatigue rate ([5]; POST): 30.9 ± 6.7%
- Peak Velocity ([5]; POST): 6.57 ± 0.18 m · s^−1
- total distance run ([5]; POST): 302.4±21.2 m
- Average Velocity ([5]; PRE): 5.21 ± 0.28 m · s^−1
- Distance Run at 90% Peak Velocity ([5]; PRE): 69.5 ± 4.1
- Fatigue rate ([5]; PRE): 32.5 ± 5.5%
- Peak Velocity ([5]; PRE): 6.68 ± 0.36 m · s^−1
- total distance run ([5]; PRE): 310.0±16.7 m
- Δ time for the 50-m casualty carry vs PL ([6]; 30 days, 6 g per day, p=0.044): significantly (p=0.044) improved
- serial subtraction test under stress vs placebo ([6]; 30 days, p=0.022): significantly improve performance
- Average Sprint Time ([6]; POST): 8.00 ± 0.29 s
- Fatigue rate ([6]; POST): 91.8 ± 3.0%
- Average Sprint Time ([6]; PRE): 7.42 ± 0.24 s
- Fatigue rate ([6]; PRE): 91.6 ± 4.8%
- adverse events [7]: No adverse events were reported
- Δ carnosine content within the gastrocnemius muscle vs PL [8]: Significant elevations
- elevation of muscle carnosine concentrations [9]: 60%
- duration of flushing/tingling of the skin [10]: less than 60 minutes
- vertical jump relative mean power [11]: 14.1±1.7 w·kg-1
- vertical jump relative peak power vs PL ([11]; p=0.034, ES=0.27): significantly greater
- relative mean power, percent greater than PL ([11]; p=0.139, ES 0.14): 10.2%
